Assay results taken from US20130225424A1, “METHODS FOR DETERMINING RESPONSIVENESS TO A DRUG BASED UPON DETERMINATION OF RAS MUTATION AND/OR RAS AMPLIFICATION” (Targeted Molecular Diagnostics, LLC, priority 2010, published 2013).

Key:
A549 cells = assay: RT-PCR gene/protein expression after Methotrexate treatment, K-RAS mutant cells; format: cell-based; details: 0.1 μM, 72 hours after treatment, normalized to Beta-2-Macroglobulin
Method: (§1) Finally, expression of genes/proteins related to folate metabolism and cell cycle progression were examined in K-RAS mutant and K-RAS wild-type NSCLC cells with Methotrexate treatment and K-RAS overexpression or knockdown. Briefly, A549 cells were treated with Methotrexate at a concentration of 0.1 μM. 72 hours after treatment, total RNA was extracted from treated and untreated cells. RT-PCR was then performed on extracted RNA to determine gene expression of K-RAS, Dihydrofolate Reductase (DHFR), Thymidylate Synthase (TYMS) and E2F1. Gene expression was normalized to […] as an internal control.

[1] = system: K-RAS wild-type NSCLC cells; assay: Gene/protein expression after Methotrexate treatment, K-RAS wild-type cells; format: cell-based
Method: as §1

[2] = system: K-RAS wild-type (Calu-3, NCI-H650 & NC-H661) NSCLC cells; assay: Cyquant Direct proliferation assay, K-RAS wild-type NSCLC cells; format: cell-based; details: K-RAS wild-type cells Calu-3, NCI-H650 & NC-H661; 0-10 μM; 72 hours
Method: (§2) Additionally, a variety of NSCLC cell lines that were K-RAS mutant (A549, NCI-H460 & NCI-H23), K-RAS mutant/amplified (NCI-H727 & NCI-H2009) and K-RAS wild-type (Calu-3, NCI-H650 & NC-H661) NSCLC cells were plated in 96 well plates treated and treated 24 hours later with multiple concentrations of Methotrexate (0-10 μM). After an additional 72 hours cells were assayed for proliferation using the Invitrogen Cyquant Direct™ proliferation assay. IC50 (inhibitory concentration that kills 50% of cells) was determined using graphpad software. Cells were treated in triplicate and cell numbers were calculated as percent untreated control.

H460 cells = assay: H460 tumors implanted in mice, cleaved caspase-3 staining; format: in vivo; details: H460 tumors approx. 500 mg; 130 mg/kg Q4Dx3 IP; harvested 10 days after treatment; cleaved caspase-3 stain
Source text: Tumors were then harvested 10 days after treatment, fixed in formalin and stained for cleaved caspase-3. Next, bright-field pictures were taken at 40× (see, FIG. 4).

[3] = system: K-RAS mutant (A549, NCI-H460 & NCI-H23) NSCLC cells; assay: Cyquant Direct proliferation assay, K-RAS mutant NSCLC cells; format: cell-based; details: 0-10 μM, 72 hours
Method: as §2

[4] = system: K-RAS mutant/amplified (NCI-H727 & NCI-H2009) NSCLC cells; assay: Cyquant Direct proliferation assay, K-RAS mutant/amplified NSCLC cells; format: cell-based; details: 0-10 μM, 72 hours
Method: as §2

## CN(Cc1cnc2nc(N)nc(N)c2n1)c1ccc(C(=O)N[C@@H](CCC(=O)O)C(=O)O)cc1 [Methotrexate]
A549 cells
  Expression of DHFR, TS, E2F-1, phosphorylated Rb and mutant K-RAS: decreased
[1]
  Expression of DHFR, TS, E2F-1, phosphorylated Rb and mutant K-RAS decreased: not
[2]
  sensitivity to Methotrexate (proliferation): not sensitive
H460 cells
  sensitivity (responsiveness) of tumors with K-Ras mutant cells: sensitive
[3]
  sensitivity to Methotrexate (proliferation): sensitive
[4]
  sensitivity to Methotrexate (proliferation): sensitive
